Experimental data: US8951760B2, “Method for producing an L-amino acid” (priority 2010, dated 2015)

System: L-lysine-producing bacterium, WC196 LC/pCABD2 strain
Assay: L-lysine production culture in small fermentation tank with addition of thiourea or urea to the medium
Type: cell-based, Escherichia coli
Method: The glycerol stock of the L-lysine-producing bacterium, WC196 LC/pCABD2 strain, was inoculated in an amount of one loop to the LB agar medium (1% of tryptone, 0.5% of yeast extract, 0.5% of sodium chloride, 1.5% of agarose) containing 20 mg/L of streptomycin, and cultured at 37° C. for 24 hours as static culture.
The cells grown in the aforementioned preculture were scraped off from the medium, suspended in a 0.85% NaCl aqueous solution, and inoculated into 300 mL of MS glucose liquid fermentation medium or MS fatty acid liquid fermentation medium having the following compositions and contained in a small fermentation tank having a total volume of 1 L at a turbidity of 0.04 measured at a wavelength of 600 nm to start the culture. With the MS glucose liquid fermentation medium, the culture was performed at a culture temperature of 37° C. and a stirring rate of 300 rpm for 16 hours with the addition of 20 mg/L of streptomycin and aeration of compressed air sterilized with a sterilization filter at 1 vvm. Furthermore, pH was maintained at 6.7 with ammonia gas. With the MS fatty acid liquid fermentation medium, the culture was performed at a culture temperature of 37° C. and a stirring rate of 700 rpm for 42 hours with addition of 20 mg/L of streptomycin and aeration of compressed air sterilized with a sterilization filter at 1 vvm. Furthermore, pH was maintained at 6.7 with ammonia gas.
The culture was performed with adding 1 mM or 5 mM thiourea as an antioxidant at the time of the start of the culture. As controls, the culture was performed under a condition in which thiourea was not added (referred to as a thiourea-free condition), and a condition in which urea was added at the same concentrations as thiourea (referred to as a urea addition condition).
During the culture, an appropriate volume of each liquid medium was sampled, and the amount of L-lysine in the culture supernatant was measured with a Biotech Analyzer AS310 (Sakura SI). Complete consumption of the oleate added to the medium was confirmed by using a gas chromatograph GC-2014 (Shimadzu). Complete consumption of the glucose added to the medium was separately confirmed by using a Biotech Analyzer AS310. Furthermore, a Tween 80 solution was added at a final concentration of 1.0% (v/v) immediately after the end of the culture, the resultant was appropriately diluted, and turbidity was measured at a wavelength of 600 nm to measure cell amount at the time of the end of the culture.

[1] = carbon source fatty acid (sodium oleate), additive 1 mM
[2] = carbon source fatty acid (sodium oleate), additive 5 mM
[3] = carbon source glucose, additive 1 mM
[4] = carbon source glucose, additive 5 mM

SMILES | Culture time required for consumption of carbon source [1] | L-Lysine accumulation at the end of culture [1] | OD600 at the end of culture [1] | Culture time required for consumption of carbon source [2] | L-Lysine accumulation at the end of culture [2] | OD600 at the end of culture [2] | Culture time required for consumption of carbon source [3] | L-Lysine accumulation at the end of culture [3] | OD600 at the end of culture [3] | Culture time required for consumption of carbon source [4] | L-Lysine accumulation at the end of culture [4] | OD600 at the end of culture [4]
NC(N)=S [Thiourea, thiourea] | 33.0 h | 5.2 g/L | 7.3 | 33.0 h | 5.2 g/L | 7.5 | 16.0 h | 4.7 g/L | 5.3 | 16.0 h | 4.7 g/L | 5.2
NC(N)=O [Urea, urea] | 41.5 h | 4.8 g/L | 6.8 | 41.5 h | 4.8 g/L | 6.9 | 16.0 h | 4.6 g/L | 5.2 | 16.0 h | 4.6 g/L | 5.2
